Test results reported in PubChem BioAssay (NCI).
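Assay format: 96-well plates, 48-hour exposure. TGI is the concentration that stops growth completely.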

Columns and labels:
Test in all cases: growth of human tumour cells (NCI), 48 h
SK-MEL-28 melanoma = test system: SK-MEL-28 melanoma
MDA-MB-231 breast = test system: MDA-MB-231 breast
SR leukemia = test system: SR leukemia
MDA-N = test system: MDA-N
EKVX NSCLC = test system: EKVX NSCLC
NCI-H23 lung = test system: NCI-H23 lung
CCRF-CEM leukemia = test system: CCRF-CEM leukemia
MOLT-4 leukemia = test system: MOLT-4 leukemia
SK-OV-3 ovarian = test system: SK-OV-3 ovarian
UACC-62 melanoma = test system: UACC-62 melanoma
HS 578T breast = test system: HS 578T breast
NCI/ADR-RES ovarian = test system: NCI/ADR-RES ovarian
NCI-H226 lung = test system: NCI-H226 lung
OVCAR-4 ovarian = test system: OVCAR-4 ovarian
ACHN renal = test system: ACHN renal
SF-539 CNS = test system: SF-539 CNS
M14 melanoma = test system: M14 melanoma
SN12C renal = test system: SN12C renal
COLO 205 colon = test system: COLO 205 colon
OVCAR-3 ovarian = test system: OVCAR-3 ovarian
NCI-H522 lung = test system: NCI-H522 lung
MDA-MB-435 = test system: MDA-MB-435
MCF7 breast = test system: MCF7 breast
UACC-257 melanoma = test system: UACC-257 melanoma
K-562 leukemia = test system: K-562 leukemia
RXF 393 renal = test system: RXF 393 renal
PC-3 prostate = test system: PC-3 prostate
BT-549 breast = test system: BT-549 breast
LOX IMVI melanoma = test system: LOX IMVI melanoma
SK-MEL-2 melanoma = test system: SK-MEL-2 melanoma
HL-60(TB) leukemia = test system: HL-60(TB) leukemia
SNB-19 CNS = test system: SNB-19 CNS
SF-295 CNS = test system: SF-295 CNS
HOP-92 NSCLC = test system: HOP-92 NSCLC
IGROV1 ovarian = test system: IGROV1 ovarian
786-0 renal = test system: 786-0 renal
NCI-H460 lung = test system: NCI-H460 lung
RPMI-8226 leukemia = test system: RPMI-8226 leukemia
OVCAR-5 ovarian = test system: OVCAR-5 ovarian
HCT-116 colon = test system: HCT-116 colon
SW-620 colon = test system: SW-620 colon
U251 CNS = test system: U251 CNS
KM12 colon = test system: KM12 colon
DU-145 prostate = test system: DU-145 prostate
OVCAR-8 ovarian = test system: OVCAR-8 ovarian
UO-31 renal = test system: UO-31 renal
HCT-15 colon = test system: HCT-15 colon
HT29 colon = test system: HT29 colon
TK-10 renal = test system: TK-10 renal
A549 NSCLC = test system: A549 NSCLC
MALME-3M melanoma = test system: MALME-3M melanoma
HOP-62 NSCLC = test system: HOP-62 NSCLC

## CC(=O)Nc1ccc(S(=O)(=O)Nc2nc(-c3ccc(Cl)cc3)cc(N3N=C(c4ccc(Br)cc4)CC3c3ccccc3)n2)cc1 (configuration not stated)
SK-MEL-28 melanoma
  TGI: 35.1 µM
MDA-MB-231 breast
  TGI: 28.6 µM
SR leukemia
  TGI: 56.6 µM
MDA-N
  TGI: 29.8 µM
EKVX NSCLC
  TGI: 26.5 µM
NCI-H23 lung
  TGI: 41.2 µM
CCRF-CEM leukemia
  TGI: 90.3 µM
MOLT-4 leukemia
  TGI: 39.5 µM
SK-OV-3 ovarian
  TGI: 29.9 µM
UACC-62 melanoma
  TGI: 25.2 µM
HS 578T breast
  TGI: 31 µM
NCI/ADR-RES ovarian
  TGI: 34.4 µM
NCI-H226 lung
  TGI: 31.8 µM
OVCAR-4 ovarian
  TGI: 30 µM
ACHN renal
  TGI: 58.3 µM
SF-539 CNS
  TGI: 31.1 µM
M14 melanoma
  TGI: 43 µM
SN12C renal
  TGI: 32.3 µM
COLO 205 colon
  TGI: 27.1 µM
OVCAR-3 ovarian
  TGI: 8.46 µM
NCI-H522 lung
  TGI: 31 µM
MDA-MB-435
  TGI: 19.6 µM
MCF7 breast
  TGI: 16.6 µM
UACC-257 melanoma
  TGI: 37.3 µM
K-562 leukemia
  TGI: 23.3 µM
RXF 393 renal
  TGI: 39.7 µM
PC-3 prostate
  TGI: 36.1 µM
BT-549 breast
  TGI: 34 µM
LOX IMVI melanoma
  TGI: 29.5 µM
SK-MEL-2 melanoma
  TGI: 30.5 µM
HL-60(TB) leukemia
  TGI: 38.1 µM
SNB-19 CNS
  TGI: 33.8 µM
SF-295 CNS
  TGI: 31.5 µM
HOP-92 NSCLC
  TGI: 32.4 µM
IGROV1 ovarian
  TGI: 24.1 µM
786-0 renal
  TGI: 44 µM
NCI-H460 lung
  TGI: 44.3 µM
RPMI-8226 leukemia
  TGI: 37.5 µM
OVCAR-5 ovarian
  TGI: 27.8 µM
HCT-116 colon
  TGI: 42.7 µM
SW-620 colon
  TGI: 52.5 µM
U251 CNS
  TGI: 32.1 µM
KM12 colon
  TGI: 40.4 µM
DU-145 prostate
  TGI: 62.4 µM
OVCAR-8 ovarian
  TGI: 33.3 µM
UO-31 renal
  TGI: 30.5 µM
HCT-15 colon
  TGI: 31.9 µM
HT29 colon
  TGI: 28.3 µM
TK-10 renal
  TGI: 33.5 µM
A549 NSCLC
  TGI: 31.5 µM
MALME-3M melanoma
  TGI: 40.7 µM
HOP-62 NSCLC
  TGI: 35.3 µM
